In ChEMBL document CHEMBL5724914, “Linking interpersonal differences in gut microbiota composition and drug biotransformation activity” (2024):

Assay: (§1) The drug is tested on Z-030 corresponding to mouse gut metagenome with ENA study accession number: PRJEB37062 and ENA sample accession number: ERS12561829 for biotransformation under anaerobic condition. The drug concentrations were measured over 9 timepoints collected between 0 and 24 hours of incubation by liquid-chromatography-coupled mass spectrometry (LC–MS)
Settings: 2 µM
Note: call rule not given here.

| Bacterial Biotransformation | SMILES |
| --- | --- |
| Compound NOT metabolized | Cc1cc2c(cc1S(N)(=O)=O)S(=O)(=O)CCC2 |
| Compound NOT metabolized | COc1ccccc1OCC(O)COC(N)=O (stereo not given) [METHOCARBAMOL] |
| Compound NOT metabolized | CCCc1nc(C(C)(C)O)c(C(=O)OCc2oc(=O)oc2C)n1Cc1ccc(-c2ccccc2-c2nnn[nH]2)cc1 [OLMESARTAN MEDOXOMIL] |

Assay: as §1, with “Z-028” for “Z-030”, “ERS12561827” for “ERS12561829”
Settings: 2 µM

| Bacterial Biotransformation | SMILES |
| --- | --- |
| Compound NOT metabolized | Cc1cc2c(cc1S(N)(=O)=O)S(=O)(=O)CCC2 |
| Compound NOT metabolized | COc1ccccc1OCC(O)COC(N)=O (stereo not given) [METHOCARBAMOL] |
| Compound NOT metabolized | CCCc1nc(C(C)(C)O)c(C(=O)OCc2oc(=O)oc2C)n1Cc1ccc(-c2ccccc2-c2nnn[nH]2)cc1 [OLMESARTAN MEDOXOMIL] |

Assay: as §1, with “Z-027” for “Z-030”, “to” for “to mouse gut”, “ERS12561826” for “ERS12561829”
Settings: 2 µM

| Bacterial Biotransformation | SMILES |
| --- | --- |
| Compound NOT metabolized | Cc1cc2c(cc1S(N)(=O)=O)S(=O)(=O)CCC2 |
| Compound NOT metabolized | COc1ccccc1OCC(O)COC(N)=O (stereo not given) [METHOCARBAMOL] |
| Compound NOT metabolized | CCCc1nc(C(C)(C)O)c(C(=O)OCc2oc(=O)oc2C)n1Cc1ccc(-c2ccccc2-c2nnn[nH]2)cc1 [OLMESARTAN MEDOXOMIL] |

Assay: as §1, with “Z-026” for “Z-030”, “to” for “to mouse gut”, “ERS12561825” for “ERS12561829”
Settings: 2 µM

| Bacterial Biotransformation | SMILES |
| --- | --- |
| Compound NOT metabolized | Cc1cc2c(cc1S(N)(=O)=O)S(=O)(=O)CCC2 |
| Compound NOT metabolized | COc1ccccc1OCC(O)COC(N)=O (stereo not given) [METHOCARBAMOL] |
| Compound NOT metabolized | CCCc1nc(C(C)(C)O)c(C(=O)OCc2oc(=O)oc2C)n1Cc1ccc(-c2ccccc2-c2nnn[nH]2)cc1 [OLMESARTAN MEDOXOMIL] |

Assay: as §1, with “Z-024” for “Z-030”, “pig” for “mouse”, “ERS12561823” for “ERS12561829”
Settings: 2 µM

| Bacterial Biotransformation | SMILES |
| --- | --- |
| Compound NOT metabolized | Cc1cc2c(cc1S(N)(=O)=O)S(=O)(=O)CCC2 |
| Compound NOT metabolized | COc1ccccc1OCC(O)COC(N)=O (stereo not given) [METHOCARBAMOL] |
| Compound metabolized | CCCc1nc(C(C)(C)O)c(C(=O)OCc2oc(=O)oc2C)n1Cc1ccc(-c2ccccc2-c2nnn[nH]2)cc1 [OLMESARTAN MEDOXOMIL] |

Assay: as §1, with “Z-020” for “Z-030”, “rabbit” for “mouse”, “ERS12561819” for “ERS12561829”
Settings: 2 µM

| Bacterial Biotransformation | SMILES |
| --- | --- |
| Compound NOT metabolized | Cc1cc2c(cc1S(N)(=O)=O)S(=O)(=O)CCC2 |
| Compound NOT metabolized | COc1ccccc1OCC(O)COC(N)=O (stereo not given) [METHOCARBAMOL] |
| Compound metabolized | CCCc1nc(C(C)(C)O)c(C(=O)OCc2oc(=O)oc2C)n1Cc1ccc(-c2ccccc2-c2nnn[nH]2)cc1 [OLMESARTAN MEDOXOMIL] |

Assay: as §1, with “Z-010” for “Z-030”, “to” for “to mouse gut”, “ERS12561810” for “ERS12561829”
Settings: 2 µM

| Bacterial Biotransformation | SMILES |
| --- | --- |
| Compound NOT metabolized | Cc1cc2c(cc1S(N)(=O)=O)S(=O)(=O)CCC2 |
| Compound NOT metabolized | COc1ccccc1OCC(O)COC(N)=O (stereo not given) [METHOCARBAMOL] |
| Compound metabolized | CCCc1nc(C(C)(C)O)c(C(=O)OCc2oc(=O)oc2C)n1Cc1ccc(-c2ccccc2-c2nnn[nH]2)cc1 [OLMESARTAN MEDOXOMIL] |

Assay: as §1, with “Z-004” for “Z-030”, “to” for “to mouse gut”, “ERS12561804” for “ERS12561829”
Settings: 2 µM

| Bacterial Biotransformation | SMILES |
| --- | --- |
| Compound NOT metabolized | Cc1cc2c(cc1S(N)(=O)=O)S(=O)(=O)CCC2 |
| Compound NOT metabolized | COc1ccccc1OCC(O)COC(N)=O (stereo not given) [METHOCARBAMOL] |
| Compound metabolized | CCCc1nc(C(C)(C)O)c(C(=O)OCc2oc(=O)oc2C)n1Cc1ccc(-c2ccccc2-c2nnn[nH]2)cc1 [OLMESARTAN MEDOXOMIL] |

Assay: as §1, with “Z-002” for “Z-030”, “rabbit” for “mouse”, “ERS12561802” for “ERS12561829”
Settings: 2 µM

| Bacterial Biotransformation | SMILES |
| --- | --- |
| Compound NOT metabolized | Cc1cc2c(cc1S(N)(=O)=O)S(=O)(=O)CCC2 |
| Compound NOT metabolized | COc1ccccc1OCC(O)COC(N)=O (stereo not given) [METHOCARBAMOL] |
| Compound metabolized | CCCc1nc(C(C)(C)O)c(C(=O)OCc2oc(=O)oc2C)n1Cc1ccc(-c2ccccc2-c2nnn[nH]2)cc1 [OLMESARTAN MEDOXOMIL] |

Assay: as §1, with “Z-001” for “Z-030”, “ERS12561801” for “ERS12561829”
Settings: 2 µM

| Bacterial Biotransformation | SMILES |
| --- | --- |
| Compound NOT metabolized | Cc1cc2c(cc1S(N)(=O)=O)S(=O)(=O)CCC2 |
| Compound NOT metabolized | COc1ccccc1OCC(O)COC(N)=O (stereo not given) [METHOCARBAMOL] |
| Compound metabolized | CCCc1nc(C(C)(C)O)c(C(=O)OCc2oc(=O)oc2C)n1Cc1ccc(-c2ccccc2-c2nnn[nH]2)cc1 [OLMESARTAN MEDOXOMIL] |

Assay: as §1, with “WLS-370” for “Z-030”, “human” for “mouse”, “ERS12561793” for “ERS12561829”
Settings: 2 µM

| Bacterial Biotransformation | SMILES |
| --- | --- |
| Compound NOT metabolized | Cc1cc2c(cc1S(N)(=O)=O)S(=O)(=O)CCC2 |
| Compound NOT metabolized | COc1ccccc1OCC(O)COC(N)=O (stereo not given) [METHOCARBAMOL] |
| Compound metabolized | CCCc1nc(C(C)(C)O)c(C(=O)OCc2oc(=O)oc2C)n1Cc1ccc(-c2ccccc2-c2nnn[nH]2)cc1 [OLMESARTAN MEDOXOMIL] |

Assay: as §1, with “WLS-170” for “Z-030”, “human” for “mouse”, “ERS12561762” for “ERS12561829”
Settings: 2 µM

| Bacterial Biotransformation | SMILES |
| --- | --- |
| Compound NOT metabolized | Cc1cc2c(cc1S(N)(=O)=O)S(=O)(=O)CCC2 |
| Compound NOT metabolized | COc1ccccc1OCC(O)COC(N)=O (stereo not given) [METHOCARBAMOL] |
| Compound metabolized | CCCc1nc(C(C)(C)O)c(C(=O)OCc2oc(=O)oc2C)n1Cc1ccc(-c2ccccc2-c2nnn[nH]2)cc1 [OLMESARTAN MEDOXOMIL] |

Assay: as §1, with “WLS-090” for “Z-030”, “human” for “mouse”, “ERS12561753” for “ERS12561829”
Settings: 2 µM

| Bacterial Biotransformation | SMILES |
| --- | --- |
| Compound NOT metabolized | Cc1cc2c(cc1S(N)(=O)=O)S(=O)(=O)CCC2 |
| Compound NOT metabolized | COc1ccccc1OCC(O)COC(N)=O (stereo not given) [METHOCARBAMOL] |
| Compound NOT metabolized | CCCc1nc(C(C)(C)O)c(C(=O)OCc2oc(=O)oc2C)n1Cc1ccc(-c2ccccc2-c2nnn[nH]2)cc1 [OLMESARTAN MEDOXOMIL] |

Settings: human gut metagenome, 24 h, 2 µM

| Bacterial Biotransformation | SMILES |
| --- | --- |
| Compound NOT metabolized | Cc1cc2c(cc1S(N)(=O)=O)S(=O)(=O)CCC2 |
| Compound NOT metabolized | COc1ccccc1OCC(O)COC(N)=O (stereo not given) [METHOCARBAMOL] |
| Compound NOT metabolized | CCCc1nc(C(C)(C)O)c(C(=O)OCc2oc(=O)oc2C)n1Cc1ccc(-c2ccccc2-c2nnn[nH]2)cc1 [OLMESARTAN MEDOXOMIL] |

Settings: human gut metagenome, 24 h, 2 µM
Remark: another data set of the same source

| Bacterial Biotransformation | SMILES |
| --- | --- |
| Compound NOT metabolized | Cc1cc2c(cc1S(N)(=O)=O)S(=O)(=O)CCC2 |
| Compound NOT metabolized | COc1ccccc1OCC(O)COC(N)=O (stereo not given) [METHOCARBAMOL] |
| Compound metabolized | CCCc1nc(C(C)(C)O)c(C(=O)OCc2oc(=O)oc2C)n1Cc1ccc(-c2ccccc2-c2nnn[nH]2)cc1 [OLMESARTAN MEDOXOMIL] |

Settings: human gut metagenome, 24 h, 2 µM
Remark: another data set of the same source

| Bacterial Biotransformation | SMILES |
| --- | --- |
| Compound NOT metabolized | Cc1cc2c(cc1S(N)(=O)=O)S(=O)(=O)CCC2 |
| Compound NOT metabolized | COc1ccccc1OCC(O)COC(N)=O (stereo not given) [METHOCARBAMOL] |
| Compound metabolized | CCCc1nc(C(C)(C)O)c(C(=O)OCc2oc(=O)oc2C)n1Cc1ccc(-c2ccccc2-c2nnn[nH]2)cc1 [OLMESARTAN MEDOXOMIL] |

Settings: human gut metagenome, 24 h, 2 µM
Remark: another data set of the same source

| Bacterial Biotransformation | SMILES |
| --- | --- |
| Compound NOT metabolized | Cc1cc2c(cc1S(N)(=O)=O)S(=O)(=O)CCC2 |
| Compound NOT metabolized | COc1ccccc1OCC(O)COC(N)=O (stereo not given) [METHOCARBAMOL] |
| Compound NOT metabolized | CCCc1nc(C(C)(C)O)c(C(=O)OCc2oc(=O)oc2C)n1Cc1ccc(-c2ccccc2-c2nnn[nH]2)cc1 [OLMESARTAN MEDOXOMIL] |

Settings: human gut metagenome, 24 h, 2 µM
Remark: another data set of the same source

| Bacterial Biotransformation | SMILES |
| --- | --- |
| Compound NOT metabolized | Cc1cc2c(cc1S(N)(=O)=O)S(=O)(=O)CCC2 |
| Compound NOT metabolized | COc1ccccc1OCC(O)COC(N)=O (stereo not given) [METHOCARBAMOL] |
| Compound metabolized | CCCc1nc(C(C)(C)O)c(C(=O)OCc2oc(=O)oc2C)n1Cc1ccc(-c2ccccc2-c2nnn[nH]2)cc1 [OLMESARTAN MEDOXOMIL] |

Settings: human gut metagenome, 24 h, 2 µM
Remark: another data set of the same source

| Bacterial Biotransformation | SMILES |
| --- | --- |
| Compound NOT metabolized | Cc1cc2c(cc1S(N)(=O)=O)S(=O)(=O)CCC2 |
| Compound NOT metabolized | COc1ccccc1OCC(O)COC(N)=O (stereo not given) [METHOCARBAMOL] |
| Compound metabolized | CCCc1nc(C(C)(C)O)c(C(=O)OCc2oc(=O)oc2C)n1Cc1ccc(-c2ccccc2-c2nnn[nH]2)cc1 [OLMESARTAN MEDOXOMIL] |

Settings: human gut metagenome, 24 h, 2 µM
Remark: another data set of the same source

| Bacterial Biotransformation | SMILES |
| --- | --- |
| Compound NOT metabolized | Cc1cc2c(cc1S(N)(=O)=O)S(=O)(=O)CCC2 |
| Compound NOT metabolized | COc1ccccc1OCC(O)COC(N)=O (stereo not given) [METHOCARBAMOL] |
| Compound metabolized | CCCc1nc(C(C)(C)O)c(C(=O)OCc2oc(=O)oc2C)n1Cc1ccc(-c2ccccc2-c2nnn[nH]2)cc1 [OLMESARTAN MEDOXOMIL] |
